Values quoted from earlier work in patent publication US11701425B2, “Valerian composition and related methods” (Société des Produits Nestlé S.A., priority 2016, dated 2023).

Settings: reported value, no test by the applicant

Structure (SMILES)	pKa
CC1=C2[C@H](/C=C(\C)C(=O)O)CC[C@@H](C)[C@H]2CC1 [valerenic acid]	about 5
CCCC(CCC)C(=O)O [valproic acid]	about 5
